The source made the active and inactive calls. The rule behind the calls is not given here.
Assays:
[1] = tested on: PC-12; assay: Neuritogenic activity in rat PC12 cells at 100 uM after 16 hrs; assay type: functional, cell-based
[2] = tested on: PC-12; assay: Cytotoxicity against rat PC12 cells assessed as effect on LDH release at 100 uM after 24 hrs; assay type: cell-based; settings: pc-12, 24 h
[3] = tested on: PC-12; assay: Cytotoxicity against rat PC12 cells assessed as effect on LDH release at 33 uM after 24 hrs; assay type: cell-based; settings: pc-12, 24 h
[4] = tested on: PC-12; assay: Cytotoxicity against rat PC12 cells assessed as effect on LDH release after 24 hrs; assay type: cell-based; settings: pc-12, 24 h

With `CC[C@@H](C)C[C@@H](C)/C=C(C)/C=C/C=C/C(=O)c1c(O)c(-c2ccc(O)cc2)c[nH]c1=O` (relative stereo) [MILITARINONE B] the Activity [1] was “inactive”, the Activity [2] was 74% and the Activity [3] was 30.7%.
For `CC[C@@H](C)C[C@@H](C)/C=C(C)/C=C/C=C/C(O)=C1\C(=O)NC(C(O)c2ccc(O)cc2)C1=O` (relative stereo) [MILITARINONE C], the Activity [1] was “Active” and the Activity [2] was 16.8%.
`CC[C@@H](C)C[C@@H](C)/C=C(C)/C=C/C=C/C(O)=C1\C(=O)NC(Cc2ccc(O)cc2)C1=O` (relative stereo) [MILITARINONE D] was tested, and the Activity [1] was “Active” and the Activity [4] was “Non-toxic”.

Reference: ChEMBL document CHEMBL1150677, “Novel tetramic acids and pyridone alkaloids, militarinones B, C, and D, from the insect pathogenic fungus Paecilomyces militaris” (J Nat Prod, 2003)
